Reference: patent US20070021360A1, “Compositions, formulations and kit with anti-sense oligonucleotide and anti-inflammatory steroid and/or obiquinone for treatment of respiratory and lung disesase” (priority 2001, published 2007)

Key:
Intracellular Adenosine = assay: In vivo effect on adenosine levels in rat tissues (HPLC); set-up: species or system Fischer 344 rats
Experimental: Folinic acid (50 mg/kg) was administered intraperitoneally once daily for fourteen days. […] Hearts were removed from animals and flash frozen in liquid nitrogen with 10 seconds of death. Liver and lungs were removed en bloc and flash frozen with 30 seconds of death. Brain tissue was subsequently dissected.

HT-29 SF cells [1] = assay: Reversal of DHEA-mediated growth inhibition; type: cell-based, human; conditions: 25 μM DHEA; supplement in medium; 48 hours
HT-29 SF cells [2] = assay: Reversal of DHEA effect on cell cycle; type: cell-based, human; conditions: 25 FM DHEA; supplement in medium; 48 and 72 hours
adenosine A1 receptor [3] = assay: Adenosine-induced bronchoconstriction (PC50 Adenosine) in allergic rabbits; type: in vivo; conditions: allergic rabbits; for effect on PC50 Adenosine value: cross-over experiment, 20 mg total aerosolized oligo
Experimental: A fortuitous hoology between the rabbit and human DNA sequences within the adenosine A1 gene overlapping the initiation codon permitted the use of the phosphorothioate anti-sense oligonucleotides initially designed for use against the human adenosine A1 receptor in a rabbit model. Neonatal New Zealand white Pasteurella-free rabbits were immunized intraperitoneally within 24 hours of birth with 312 antigen units/ml house dust mite (D. farinae) extract (Berkeley Biologicals, Berkeley, Calif.), mixed with 10% kaolin. Immunizations were repeated weekly for the first month and then biweekly for the next 2 months. At 3-4 months of age, eight sensitized rabbits were anesthetized and relaxed with a mixture of ketamine hydrochloride (44 mg/kg) and acepromazine maleate (0.4 mg/kg) administered intramuscularly. The rabbits were then laid supine in a comfortable position on a small molded, padded animal board and intubated with a 4.0-mm intratracheal tube (Mallinkrodt, Inc., Glens Falls, N.Y.). A polyethylene catheter of external diameter 2.4 mm with an attached latex balloon was passed into the esophagus and maintained at the same distance (approximately 16 cm) from the mouth throughout the experiments. The intratracheal tube was attached to a heated Fleisch pneumotachograph (size 00; DOM Medical, Richmond, Va.), and flow was measured using a Validyne differential pressure transducer (Model DP-45161927; Validyne Engineering Corp., Northridge, Calif.) driven by a Gould carrier amplifier (Model 11-4113; Gould Electronic, Cleveland, Ohio). The esophageal balloon was attached to one side of the differential pressure transducer, and the outflow of the intratracheal tube was connected to the opposite side of the pressure transducer to allow recording of transpulmonary pressure. Flow was integrated to give a continuous tidal volume, and measurements of total lung resistance (RL) and dynamic compliance (Cdyn) were calculated at isovolumetric and flow zero points, respectively, using an automated respiratory analyzer (Model 6; Buxco, Sharon, Conn.). Animals were randomized and on Day 1 pretreatment values for PC50 were obtained for aerosolized adenosine. Anti-sense (HAdA1AS) or mismatched control (HAdA1MM) oligonucleotides were dissolved in sterile physiological saline at a concentration of 5000 μg (5 mg) per 1.0 ml. […] Aerosols of either saline, adenosine, or anti-sense or mismatch oligonucleotides were generated by an ultrasonic nebulizer (DeVilbiss, Somerset, Pa.), producing aerosol droplets 80% of which were smaller than 5:m in diameter. In the first arm of the experiment, four randomly selected allergic rabbits were administered anti-sense oligonucleotide and four the mismatched control oligonucleotide. On the morning of the third day, PC50 values (the concentration of aerosolized adenosine in mg/ml required to reduce the dynamic compliance of the bronchial airway 50% from the baseline value) were obtained and compared to PC50 values obtained for these animals prior to exposure to oligonucleotide. Following a 1 week interval, animals were crossed over, with those previously administered mismatch control oligonucleotide now administered anti-sense oligonucleotide, and those previously treated with anti-sense oligonucleotide now administered mismatch control oligonucleotide. Treatment methods and measurements were identical to those employed in the first arm of the experiment. […] For the purpose of calculation, PC50 values for these animals were set at 20 mg/ml. The values given therefore represent a minimum figure for anti-sense effectiveness. Actual effectiveness was higher.
Aerosols of either adenosine (0-20 mglnml), or anti-sense or one of two mismatch oligonucleotides (5 mg/ml) were separately prepared with an ultrasonic nebulizer (Model 646, DeVilbiss, Somerset, Pa.), which produced aerosol droplets, 80% of which were smaller than 5:m in diameter. […]

adenosine A1 receptor [4] = target: T1, adenosine A1 receptor (Oryctolagus cuniculus, UniProt P34970); conditions: mismatch controls; Nyce & Metzger (1997); cited from earlier work
T1 construct: Airway smooth muscle tissue was dissected from each rabbit and a membrane fraction prepared; from tissue; host or cells: rabbit airway smooth muscle, crude plasma membranes
T1 sequence (P34970 1-328): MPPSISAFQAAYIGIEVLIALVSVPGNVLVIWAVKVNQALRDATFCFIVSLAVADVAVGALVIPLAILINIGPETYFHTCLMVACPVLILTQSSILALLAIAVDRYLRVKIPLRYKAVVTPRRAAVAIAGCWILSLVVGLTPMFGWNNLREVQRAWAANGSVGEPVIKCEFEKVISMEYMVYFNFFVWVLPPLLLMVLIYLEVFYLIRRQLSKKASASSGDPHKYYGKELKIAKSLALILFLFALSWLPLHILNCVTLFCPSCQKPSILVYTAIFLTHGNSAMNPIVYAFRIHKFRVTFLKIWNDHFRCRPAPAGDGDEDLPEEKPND

allergic rabbits [5] = assay: Allergen-induced bronchial hyperresponsiveness (PC50 Histamine) in allergic rabbits; type: in vivo, rabbit; conditions: compared to mismatched control; from PC50 Histamine value; p<0.05
Experimental: Each allergic rabbit was administered histamine by aerosol to determine their baseline hyperresponsiveness. Aerosols of either saline or hitamine were generated using a DeVilbiss nebulizer (DeVilbiss, Somerset, Pa.) for 30 seconds and then for 2 minutes at each dose employed. The ultrasonic nebulizer produced aerosol droplets of which 80% were <5 micron in diameter. The histamine aerosol was administered in increasing concentrations (0.156 to 80 mg/ml) and measurements of pulmonary function were made after each dose. The […] was then determined by calculating the concentration of histamine (mg/ml) required to reduce the Cdyn 50% from baseline (PC50 Histamine)

allergic rabbits [6] = assay: Allergen-induced airway obstruction in allergic rabbits; type: in vivo, rabbit; conditions: compared with mismatched control; from area under the plotted curve; p<0.05
[7] = target: B2 bradykinin receptor (rabbit airway smooth muscle membranes) (rabbit) (UniProt Q28642); assay: radioligand binding, airway smooth muscle membranes; rabbits treated with A1 receptor anti-sense oligo, 2 mg
[8] = target: B2 bradykinin receptor (rabbit airway smooth muscle membranes) (rabbit) (UniProt Q28642); assay: radioligand binding, airway smooth muscle membranes; rabbits treated with A1MM1 mismatch control, 20 mg
[9] = target: B2 bradykinin receptor (rabbit airway smooth muscle membranes) (rabbit) (UniProt Q28642); assay: radioligand binding, airway smooth muscle membranes; saline control rabbits
[10] = target: B2 bradykinin receptor (rabbit airway smooth muscle membranes) (rabbit) (UniProt Q28642); assay: radioligand binding, airway smooth muscle membranes; rabbits treated with A1 receptor anti-sense oligo, 0.2 mg
[11] = target: B2 bradykinin receptor (rabbit airway smooth muscle membranes) (rabbit) (UniProt Q28642); assay: radioligand binding, airway smooth muscle membranes; rabbits treated with A1MM1 mismatch control, 2 mg
[12] = target: B2 bradykinin receptor (rabbit airway smooth muscle membranes) (rabbit) (UniProt Q28642); assay: radioligand binding, airway smooth muscle membranes; rabbits treated with B2MM mismatch control, 20 mg
[13] = target: B2 bradykinin receptor (rabbit airway smooth muscle membranes) (rabbit) (UniProt Q28642); assay: radioligand binding, airway smooth muscle membranes; rabbits treated with B2A bradykinin receptor anti-sense oligo, 2 mg
[14] = target: B2 bradykinin receptor (rabbit airway smooth muscle membranes) (rabbit) (UniProt Q28642); assay: radioligand binding, airway smooth muscle membranes; rabbits treated with B2A bradykinin receptor anti-sense oligo, 20 mg
[15] = target: B2 bradykinin receptor (rabbit airway smooth muscle membranes) (rabbit) (UniProt Q28642); assay: radioligand binding, airway smooth muscle membranes; rabbits treated with B2MM mismatch control, 0.2 mg
[16] = target: B2 bradykinin receptor (rabbit airway smooth muscle membranes) (rabbit) (UniProt Q28642); assay: radioligand binding, airway smooth muscle membranes; rabbits treated with B2A bradykinin receptor anti-sense oligo, 0.2 mg
[17] = target: B2 bradykinin receptor (rabbit airway smooth muscle membranes) (rabbit) (UniProt Q28642); assay: radioligand binding, airway smooth muscle membranes; rabbits treated with B2MM mismatch control, 2 mg
[18] = target: B2 bradykinin receptor (rabbit airway smooth muscle membranes) (rabbit) (UniProt Q28642); assay: radioligand binding, airway smooth muscle membranes; rabbits treated with A1 receptor anti-sense oligo, 20 mg
adenosine A3 receptor = assay: Inflammatory cells in bronchial lavage fluid after dust mite allergen; type: in vivo, rabbit; conditions: allergic rabbits, 20 mg oligo, lavage 3 hours later
Experimental: The number of inflammatory cells was determined in their bronchial lavage fluid 3 hours later by counting at least 100 viable cells per lavage. The effect of anti-sense oligos III (SEQ ID NO: 9377) and IV (SEQ ID NO: 9378) upon granulocytes, and upon total cells in bronchial lavage were assessed following exposure to dust mite allergen. […] As is known in the art, granulocytes, especially eosinophils, are the primary inflammatory cells of asthma and the administration of anti-sense oligos III (SEQ ID NO: 9377) and IV (SEQ ID NO: 9378) reduced their numbers by 40% and 66%, respectively. […] This is also an important indicator of anti-inflammatory activity by the present anti-adenosine A3 agents of the invention. Inflammation is known to underlie bronchial hyperresponsiveness and allergen-induced bronchoconstriction in asthma. Both anti-sense oligonucleotides III (SEQ ID NO: 9377) and IV (SEQ ED NO: 9378), which are targeted to the adenosine A3 receptor, are representative of an important new class of anti-inflammatory agents which may be designed to specifically target the lung receptors of each species.

[19] = once daily 14 days, DHEA 300 mg/kg, methyltestosterone 40 mg/kg (120 mg/kg in M + F.A.), folinic acid 50 mg/kg, mean ± SEM
[20] = daily for two weeks, DHEA or high dose methyltestosterone
[21] = methyltestosterone 120 mg/kg, mean ± SEM

Sequence of B2 bradykinin receptor (rabbit airway smooth muscle membranes) (rabbit) (Q28642 whole entry): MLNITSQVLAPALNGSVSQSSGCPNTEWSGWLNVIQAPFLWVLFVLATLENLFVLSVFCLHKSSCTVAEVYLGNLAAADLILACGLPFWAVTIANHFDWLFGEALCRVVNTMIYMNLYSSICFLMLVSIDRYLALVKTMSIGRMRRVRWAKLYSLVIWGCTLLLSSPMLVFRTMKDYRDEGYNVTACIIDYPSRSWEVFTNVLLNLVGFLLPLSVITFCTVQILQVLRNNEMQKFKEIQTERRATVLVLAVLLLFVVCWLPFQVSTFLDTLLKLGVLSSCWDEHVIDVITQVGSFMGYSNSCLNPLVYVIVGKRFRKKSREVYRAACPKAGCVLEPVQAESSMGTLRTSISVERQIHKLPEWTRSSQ

## Nc1nc(=O)c2c([nH]1)NCC(CNc1ccc(C(=O)N[C@@H](CCC(=O)O)C(=O)O)cc1)N2C=O (mixture of isomers) [Folinic Acid (F.A.), Folinic acid]
Intracellular Adenosine; folinic acid 50 mg/kg intraperitoneally
  effect on adenosine levels when administered alone: increase in adenosine levels for all organs studied
Intracellular Adenosine; folinic acid co-administered with DHEA or methyltestosterone
  effect of co-administration on steroid-mediated adenosine depletion: completely abrogated steroid-mediated adenosine depletion
Intracellular Adenosine; [19]
  Intracellular Adenosine, Brain: 0.72 ± 0.09 nmol/mg protein
  Intracellular Adenosine, Heart: 12.4 ± 2.1 nmol/mg protein

## CC(C)CCC[C@@H](C)[C@H]1CC[C@H]2[C@@H]3CC=C4C[C@@H](O)CC[C@]4(C)[C@H]3CC[C@]12C [CH, cholesterol]
HT-29 SF cells [1]
  reversal of DHEA-induced growth inhibition: no such effect
HT-29 SF cells [2]
  prevention of DHEA-induced S phase depletion: very little effect at 48 hours and no effect at 72 hours

## 5′-GTAGGTGGCGGGCAAGGCGGG-3′ (antisense GTAGGTGGCGGGCAAGGCGGG; phosphorothioate, further chemistry not given here) [Oligo A1MM2, mismatch control for anti-sense oligo I, reference compound]
Adenosine A1 receptor [3]; Total Dose 0.2 mg
  PC50 Adenosine: 2.51 ± 0.46 mg Adenosine
Adenosine A1 receptor [3]; Total Dose 2.0 mg
  PC50 Adenosine: 3.13 ± 0.71 mg Adenosine
Adenosine A1 receptor [3]; Total Dose 20 mg
  PC50 Adenosine: 3.25 ± 0.34 mg Adenosine
Adenosine A1 receptor [3]
  effect on PC50 Adenosine value: no effect
Adenosine A1 receptor [4]
  effect upon any of the targeted receptors (A1, A2 or B2): absolutely no effect
Allergic rabbits [5]
  inhibition of allergen-induced BHR: complete lack of effect
Allergic rabbits [6]
  inhibition of allergen-induced airway obstruction: complete lack of effect

## [3H]NPC 17731 (peptide)
[7]
  Kd: 0.41 nM
[8]
  Kd: 0.35 nM
[9]
  Kd: 0.39 nM
[10]
  Kd: 0.34 nM
[11]
  Kd: 0.38 nM
[12]
  Kd: 0.41 nM
[13]
  Kd: 0.34 nM
[14]
  Kd: 0.38 nM
[15]
  Kd: 0.36 nM
[16]
  Kd: 0.35 nM
[17]
  Kd: 0.37 nM
[18]
  Kd: 0.39 nM

## C[C@@](O)(CCO)CC(=O)O [MVA, mevalonic acid]
HT-29 SF cells [1]
  reversal of DHEA-induced growth inhibition: partially overcome
HT-29 SF cells [2]
  prevention of DHEA-induced S phase depletion: partially prevented this effect in the initial 48 hours but not after 72 hours

## 5′-GATGGAGGCGGGCATGGCGGG-3 [Oligo A1MM3, reference compound]
Adenosine A1 receptor [3]
  effect on PC50 Adenosine value: no effect
Adenosine A1 receptor [4]
  effect upon any of the targeted receptors (A1, A2 or B2): absolutely no effect

## CC(C)=CCC/C(C)=C/CC/C(C)=C/CC/C=C(\C)CC/C=C(\C)CCC=C(C)C [SQ, squalene]
HT-29 SF cells [1]
  reversal of DHEA-induced growth inhibition: no such effect

## 5′-GGC CCA GGG CCA GCC-31 (antisense GGCCCAGGGCCAGCC; all phosphorothioate, sugars by position and methylation of C not given here) [Oligo IV, targets adenosine A3 receptor mRNA +386 to +401]
Adenosine A3 receptor
  reduction of granulocyte numbers in bronchial lavage: 66%
  reduction of total number of cells in bronchial lavage fluid: 40%

## C[C@]12CCC(=O)C=C1CC[C@@H]1[C@@H]2CC[C@@]2(C)[C@H]1CC[C@]2(C)O [Methyltestosterone, methyltestosterone]
Intracellular Adenosine; [20]
  depletion of adenosine in brain: 34%
  depletion of adenosine in heart: 22%
Intracellular Adenosine; in vivo
  Intracellular Adenosine, Brain: 0.42 ± 0.06 nmol/mg protein
  Intracellular Adenosine, Heart: 8.3 ± 1.0 nmol/mg protein
Intracellular Adenosine; [21]
  Intracellular Adenosine, Brain: 0.32 ± 0.03 nmol/mg protein
  Intracellular Adenosine, Heart: 6.0 ± 0.4 nmol/mg protein
